From ChEMBL document CHEMBL4190285, “Borapetoside E, a Clerodane Diterpenoid Extracted from Tinospora crispa, Improves Hyperglycemia and Hyperlipidemia in High-Fat-Diet-Induced Type 2 Diabetes Mice” (J Nat Prod, 2017)
Active and inactive are the calls of the source. The calls are words filed in the database; no cut-off is given here.

Experiments:
[1] = system: Mus musculus; experiment: Down regulation of HMGCS mRNA expression in HFD-induced obese C57BL/6J mouse liver at 20 to 40 mg/kg, ip administered twice daily for 2.5 days measured at 2 hrs post last dose by RT-PCR analysis; assay type: functional, organism-based
[2] = system: Mus musculus; experiment: Antihyperlipidemic activity in high fat diet-induced obese C57BL/6J mouse assessed as serum triglyceride levels at 40 mg/kg, ip administered twice daily for 2.5 days measured at 2 hrs post last dose (reference value: 1.31 +/- 0.48 mmol/L); assay type: functional
[3] = system: Mus musculus; experiment: Down regulation of LXRalpha mRNA expression in HFD-induced obese C57BL/6J mouse liver at 20 to 40 mg/kg, ip administered twice daily for 2.5 days measured at 2 hrs post last dose by RT-PCR analysis; assay type: functional, organism-based
[4] = system: Mus musculus; experiment: Improvement in insulin resistance in high fat diet-induced obese C57BL/6J mouse assessed as increase in phosphorylated AKT ser473 level in liver at 40 mg/kg, ip administered twice daily for 2.5 days measured at 2 hrs post last dose by Western blot analysis; assay type: functional, organism-based
[5] = system: Mus musculus; experiment: Toxicity in HFFD-induced obese C57BL/6J mouse assessed as serum creatinine kinase level at 40 mg/kg, ip administered twice daily for 2.5 days followed by once daily dosing up to 16 days measured at 2 hrs post last dose (reference value: 551.93 +/- 126.48 U/L); assay type: organism-based; settings: in vivo
[6] = system: Mus musculus; experiment: Down regulation of HMGCR mRNA expression in HFD-induced obese C57BL/6J mouse adipose tissue at 20 to 40 mg/kg, ip administered twice daily for 2.5 days measured at 2 hrs post last dose by RT-PCR analysis; assay type: functional, organism-based
[7] = system: Mus musculus; experiment: Increase in oxygen consumption in HFFD-induced obese C57BL/6J mouse at 40 mg/kg, ip administered twice daily for 2.5 days measured up to 12.6 hrs under dark condition; assay type: functional, organism-based
[8] = system: Mus musculus; experiment: Antihyperlipidemic activity in high fat diet-induced obese C57BL/6J mouse assessed as serum triglyceride levels at 20 mg/kg, ip administered twice daily for 2.5 days measured at 2 hrs post last dose (reference value: 1.31 +/- 0.48 mmol/L); assay type: functional
[9] = system: Mus musculus; experiment: Increase in phosphorylated AMPKalpha level in HFFD-induced obese C57BL/6J mouse liver at 20 to 40 mg/kg, ip administered twice daily for 2.5 days measured at 2 hrs post last dose by Western blot analysis; assay type: functional, organism-based
[10] = system: Mus musculus; experiment: Improvement in insulin resistance in high fat diet-induced obese C57BL/6J mouse assessed as increase in insulin sensitivity index at 40 mg/kg, ip pretreated twice daily for 2.5 days followed by insulin challenge at 2 hrs post last dose measured up to 2 hrs by ITT; assay type: functional, organism-based
[11] = system: Mus musculus; experiment: Antihyperglycemic activity in high fat diet-induced obese C57BL/6J mouse assessed as reduction in blood glucose AUC at 40 mg/kg, ip pretreated twice daily for 2.5 days followed by glucose challenge at 2 hrs post last dose by OGTT; assay type: functional, organism-based
[12] = system: Mus musculus; experiment: Down regulation of SREBP1 mRNA expression in HFD-induced obese C57BL/6J mouse adipose tissue at 20 to 40 mg/kg, ip administered twice daily for 2.5 days measured at 2 hrs post last dose by RT-PCR analysis; assay type: functional, organism-based
[13] = system: Mus musculus; experiment: Antihyperlipidemic activity in high fat diet-induced obese C57BL/6J mouse assessed as serum free fatty acid levels at 40 mg/kg, ip administered twice daily for 2.5 days measured at 2 hrs post last dose (reference value: 1.41 +/- 0.3 mmol/L); assay type: functional
[14] = system: Mus musculus; experiment: Antiobesity activity in HFFD-induced obese C57BL/6J mouse assessed as reduction in hepatic steatosis at 40 mg/kg, ip administered twice daily for 2.5 days followed by once daily dosing up to 16 days measured at 2 hrs post last dose by Oil red O staining based histological analysis; assay type: functional, organism-based
[15] = system: Mus musculus; experiment: Down regulation of ABCG8 mRNA expression in HFD-induced obese C57BL/6J mouse liver at 20 to 40 mg/kg, ip administered twice daily for 2.5 days measured at 2 hrs post last dose by RT-PCR analysis; assay type: functional, organism-based
[16] = system: Mus musculus; experiment: Antihyperlipidemic activity in high fat diet-induced obese C57BL/6J mouse assessed as serum HDL-C levels at 20 mg/kg, ip administered twice daily for 2.5 days measured at 2 hrs post last dose (reference value: 1.82 +/- 0.58 mmol/L); assay type: functional
[17] = system: Mus musculus; experiment: Effect on respiratory exchange ratios in HFD-induced obese C57BL/6J mouse at 40 mg/kg, ip administered twice daily for 2.5 days measured up to 12.6 hrs under dark condition; assay type: functional, organism-based
[18] = system: Mus musculus; experiment: Down regulation of ACL1 mRNA expression in HFD-induced obese C57BL/6J mouse adipose tissue at 20 to 40 mg/kg, ip administered twice daily for 2.5 days measured at 2 hrs post last dose by RT-PCR analysis; assay type: functional, organism-based
[19] = system: Mus musculus; experiment: Antihyperlipidemic activity in high fat diet-induced obese C57BL/6J mouse assessed as reduction in liver cholesterol levels at 20 to 40 mg/kg, ip administered twice daily for 2.5 days measured at 2 hrs post last dose; assay type: functional, organism-based
[20] = system: Mus musculus; experiment: Down regulation of FAS mRNA expression in HFD-induced obese C57BL/6J mouse adipose tissue at 20 to 40 mg/kg, ip administered twice daily for 2.5 days measured at 2 hrs post last dose by RT-PCR analysis; assay type: functional, organism-based
[21] = system: Mus musculus; experiment: Down regulation of HMGCS mRNA expression in HFD-induced obese C57BL/6J mouse adipose tissue at 20 to 40 mg/kg, ip administered twice daily for 2.5 days measured at 2 hrs post last dose by RT-PCR analysis; assay type: functional, organism-based
[22] = system: Mus musculus; experiment: Antihyperglycemic activity in high fat diet-induced obese C57BL/6J mouse assessed as reduction in blood glucose level at 20 to 40 mg/kg, ip administered twice daily for 2.5 days measured after 2 hrs post last dose; assay type: functional, organism-based
[23] = system: Mus musculus; experiment: Improvement in insulin resistance in high fat diet-induced obese C57BL/6J mouse assessed as reduction in fasting serum insulin level at 40 mg/kg, ip pretreated twice daily for 2.5 days followed by insulin challenge at 2 hrs post last dose measured up to 2 hrs by ELISA based ITT; assay type: functional, organism-based
[24] = system: Mus musculus; experiment: Improvement in insulin resistance in high fat diet-induced obese C57BL/6J mouse assessed as increase in phosphorylated GSK3beta level in liver at 40 mg/kg, ip administered twice daily for 2.5 days measured at 2 hrs post last dose by Western blot analysis; assay type: functional, organism-based
[25] = system: Mus musculus; experiment: Down regulation of SREBP1 mRNA expression in HFD-induced obese C57BL/6J mouse liver at 20 to 40 mg/kg, ip administered twice daily for 2.5 days measured at 2 hrs post last dose by RT-PCR analysis; assay type: functional, organism-based
[26] = system: Mus musculus; experiment: Antiobesity activity in HFFD-induced obese C57BL/6J mouse assessed as reduction in body weight at 40 mg/kg, ip administered twice daily for 2.5 days followed by once daily dosing up to 16 days relative to control; assay type: functional; design: scale not given: the % may be the effect or the level left
[27] = system: Mus musculus; experiment: Antihyperglycemic activity in high fat diet-induced obese C57BL/6J mouse assessed as reduction in blood glucose level at 20 to 40 mg/kg, ip administered twice daily for 2.5 days measured at 3 days post last dose; assay type: functional, organism-based
[28] = system: Mus musculus; experiment: Improvement in serum AST level in HFFD-induced obese C57BL/6J mouse assessed as serum AST level at 40 mg/kg, ip administered twice daily for 2.5 days followed by once daily dosing up to 16 days measured at 2 hrs post last dose (reference value: 15.14 +/- 3.84 IU/L); assay type: functional

SMILES: COC(=O)C1=CCC[C@H]2[C@](C)(C[C@@H](O[C@@H]3O[C@H](CO)[C@@H](O)[C@H](O)[C@H]3O)c3ccoc3)[C@H]3C[C@H](OC3=O)[C@@]12C
- Activity [1]: Active
- Activity [2]: 0.5 mmol/L
- Activity [3]: Active
- Activity [4]: Active
- Activity [5]: 520.4 U/L
- Activity [6]: Active
- Activity [7]: Active
- Activity [8]: 1.09 mmol/L
- Activity [9]: inactive
- Activity [10]: Active
- Activity [11]: Active
- Activity [12]: Active
- Activity [13]: 0.82 mmol/L
- Activity [14]: Active
- Activity [15]: Active
- Activity [16]: 1.2 mmol/L
- Activity [17]: inactive
- Activity [18]: Active
- Activity [19]: Active
- Activity [20]: Active
- Activity [21]: Active
- Activity [22]: Active
- Activity [23]: Active
- Activity [24]: Active
- Activity [25]: Active
- Activity [26]: 8.7%
- Activity [27]: Active
- Activity [28]: 8.61 IU/L
